From PMC7272617 (Scientific Reports, 2020) come the findings set out here.

For assay [1], the system named is all Gram-positive strains. The assay is described as follows: Mean MIC and therapeutic index, Gram-positive strains. It counts as cell-based. The following applies: 5 Gram-positive strains of Table 3. As to the method: (§1) The antimicrobial activity of the peptides was determined against both Gram-positive and -negative bacteria including 14 MDR P. aeruginosa clinical isolates from Bhumibol Adulyadej Hospital (Tables 1 and 3). The minimal inhibitory concentration (MIC) of each peptide was measured according to a modification of the National Committee for Clinical Laboratory Standards (NCCLS) broth microdilution method as previously described. Briefly, bacterial cells in mid-log phase were cultured in Müeller-Hinton broth (MHB) and then diluted to 10^7 CFU/ml. […] Plates were incubated at 37 °C for 24 h, and MICs were defined as the lowest concentration of peptide that prevented visible turbidity. Cultures without peptides and uninoculated MHB were employed as positive and negative controls, respectively. Colony count assays were performed to determine the minimal bactericidal concentrations (MBCs) for determination of time-killing activity. As previously described, a 50 μl aliquot from each non-turbid well identified in the MIC determination experiment was spread on agar plates.
(§2) To further evaluate the global activity of these peptides, the geometric mean (GM) MIC and the therapeutic index (TI) of each were calculated (Table 3). The TI, a widely used parameter to evaluate cell selectivity and specificity of antimicrobial agents, was calculated as the ratio of MHC (the concentration that causes 10% hemolysis) to the geometric mean of MICs[22]. Higher TIs indicated greater cell selectivity and specificity.

Assay [2] has as its system Escherichia coli O157:H7 MT strain. The following applies: E. coli O157:H7 MT strain; MHB, 37 °C, 24 h.
Assay [3] has as its system Escherichia coli ATCC 25922. The following applies: ATCC 25922, 24 h.
Assay [4] concerns Staphylococcus aureus ATCC 25923. The following applies: ATCC 25923, 24 h.
For assay [5], the system named is Listeria monocytogenes 10403 s. The settings on record: 10403 s, 24 h.
Assay [6] has as its system Staphylococcus epidermidis ATCC 12228. The following applies: ATCC 12228, 24 h.
The subject of assay [7] is all Gram-negative strains. The assay is described as follows: Mean MIC and therapeutic index, Gram-negative strains. The settings on record: 7 Gram-negative strains of Table 3. It is filed as cell-based. The procedure:
as §1, §2

Assay [8] deals with Vibrio cholera O1 Inaba DMST 16261. The following applies: MHB, 37 °C, 24 h.
The test system of assay [9] is Enterococcus faecalis ATCC 29212. The settings on record: ATCC 29212, 24 h.
Assay [10] relates to Pseudomonas aeruginosa ATCC 27853. The settings on record: ATCC 27853, 24 h.
Assay [11] concerns Salmonella Typhimurium ATCC 13311. The settings on record: ATCC 13311, 24 h.
Assay [12] has as its system Acinetobacter baumannii MT strain. The settings on record: MT strain, 24 h.

Values after ≈ are worked out from the molar mass of the structure shown. Where a SMILES comes first, the peptide text is derived from it.

For the compound `CC[C@H](C)[C@H](NC(=O)[C@H](CCCNC(=N)N)NC(=O)[C@H](CCCCN)NC(=O)[C@H](C)NC(=O)[C@@H](NC(=O)[C@@H](N)CCCCN)[C@@H](C)CC)C(=O)N[C@@H](Cc1c[nH]c2ccccc12)C(=O)N[C@@H](CCCCN)C(=O)N[C@H](C(=O)N[C@@H](CC(C)C)C(=O)N[C@@H](CCCNC(=N)N)C(=O)N[C@@H](CCCNC(=N)N)C(=O)N[C@@H](CCCNC(=N)N)C(=O)N[C@@H](CC(C)C)C(=O)N[C@@H](Cc1ccccc1)C(=O)N[C@@H](CCCNC(=N)N)C(=O)N[C@@H](CCCNC(=N)N)C(=O)N[C@H](C(=O)N[C@@H](CCCCN)C(=O)N[C@@H](CCCCN)C(=O)N[C@H](C(=O)N[C@@H](C)C(=O)NCC(N)=O)C(C)C)C(C)C)[C@@H](C)CC` [P7A3] (H-KIAKRIWKILRRRLFRRVKKVAG-NH2; N-terminus assumed), in assay [1], the “GM (Gr.+ strains): geometric mean of MIC values from all Gram-positive strains” value (from here on “GM (Gr.+ strains): geometric mean”) came to 12.50 µg/mL. The MIC was 250 µg/mL (≈ 86.5 µM) in assay [2]; 15.63 µg/mL (≈ 5.41 µM) in assay [3]; 15.63 µg/mL (≈ 5.41 µM) in [4]; 3.91 µg/mL (≈ 1.35 µM) in assay [5]; 3.91 µg/mL (≈ 1.35 µM) in assay [6]; 7.81 µg/mL (≈ 2.7 µM) in [8]. In assay [9], this compound came in with an MIC of 31.25 µg/mL (≈ 10.8 µM). The “GM (Gr.− strains): geometric mean of MIC values from all Gram-negative strains” value (from here on “GM (Gr.− strains): geometric mean”) in assay [7] is 42.97 µg/mL.

In the case of `CC[C@H](C)[C@H](NC(=O)[C@H](CCCNC(=N)N)NC(=O)[C@H](CCCCN)NC(=O)[C@H](C)NC(=O)[C@@H](NC(=O)[C@@H](N)CCCCN)[C@@H](C)CC)C(=O)N[C@@H](Cc1c[nH]c2ccccc12)C(=O)N[C@@H](CCCCN)C(=O)N[C@H](C(=O)N[C@@H](CC(C)C)C(=O)N[C@@H](CCCNC(=N)N)C(=O)N[C@@H](CCCNC(=N)N)C(=O)N[C@@H](CCCNC(=N)N)C(=O)N[C@@H](CC(C)C)C(N)=O)[C@@H](C)CC` [PA-14] (H-KIAKRIWKILRRRL-NH2; N-terminus assumed), in [1], the “GM (Gr.+ strains): geometric mean” value amounted to 30.86 µg/mL. For the same compound, the MIC in [2] was 62.5 µg/mL (≈ 33.8 µM); in assay [3], 15.63 µg/mL (≈ 8.45 µM); in assay [4], 15.63 µg/mL (≈ 8.45 µM); in assay [5] it was 1.95 µg/mL (≈ 1.05 µM); in assay [10], 3.91 µg/mL (≈ 2.11 µM); in [6], 3.91 µg/mL (≈ 2.11 µM). Besides, the MIC in assay [8] came out at 7.81 µg/mL (≈ 4.22 µM); in assay [11], 1.95 µg/mL (≈ 1.05 µM); in assay [9], 125 µg/mL (≈ 67.6 µM); in [12], 3.91 µg/mL (≈ 2.11 µM). Besides, the “GM (Gr.− strains): geometric mean” value in [7] stood at 14.23 µg/mL.

As for `CC[C@H](C)[C@H](NC(=O)[C@H](CCCNC(=N)N)NC(=O)[C@H](CCCCN)NC(=O)[C@H](C)NC(=O)[C@@H](NC(=O)[C@@H](N)CCCCN)[C@@H](C)CC)C(=O)N[C@@H](Cc1c[nH]c2ccccc12)C(=O)N[C@@H](CCCCN)C(=O)N[C@H](C(=O)N[C@@H](CC(C)C)C(=O)N[C@@H](CCCNC(=N)N)C(=O)N[C@@H](CCCNC(=N)N)C(=O)N[C@@H](CCCNC(=N)N)C(=O)N[C@@H](CC(C)C)C(=O)N[C@@H](Cc1ccccc1)C(N)=O)[C@@H](C)CC` [PA-15] (H-KIAKRIWKILRRRLF-NH2; N-terminus assumed), in [1], the “GM (Gr.+ strains): geometric mean” value worked out at 9.77 µg/mL. Moreover, the MIC in assay [2] is 15.63 µg/mL (≈ 7.83 µM); in assay [4], 7.81 µg/mL (≈ 3.91 µM); in [5], 1.95 µg/mL (≈ 0.977 µM); in [10], 7.81 µg/mL (≈ 3.91 µM); in assay [8] it was 3.91 µg/mL (≈ 1.96 µM); in assay [11], 1.95 µg/mL (≈ 0.977 µM). Besides, in assay [9], the MIC amounted to 31.25 µg/mL (≈ 15.7 µM). Further, in assay [7], the “GM (Gr.− strains): geometric mean” value was 7.54 µg/mL.

As for `CC[C@H](C)[C@H](NC(=O)[C@H](CCCNC(=N)N)NC(=O)[C@H](CCCCN)NC(=O)[C@H](C)NC(=O)[C@@H](NC(=O)[C@@H](N)CCCCN)[C@@H](C)CC)C(=O)N[C@@H](Cc1c[nH]c2ccccc12)C(=O)N[C@@H](CCCCN)C(=O)N[C@H](C(=O)N[C@@H](CC(C)C)C(=O)N[C@@H](CCCNC(=N)N)C(=O)N[C@@H](CCCNC(=N)N)C(=O)N[C@@H](CCCNC(=N)N)C(=O)N[C@@H](CC(C)C)C(=O)N[C@@H](Cc1ccccc1)C(=O)N[C@@H](CCCNC(=N)N)C(N)=O)[C@@H](C)CC` [PA-16] (H-KIAKRIWKILRRRLFR-NH2; N-terminus assumed), in assay [1], the “GM (Gr.+ strains): geometric mean” value came to 7.03 µg/mL. The MIC in assay [2] was determined as 62.5 µg/mL (≈ 29 µM); in [3], 7.81 µg/mL (≈ 3.63 µM); in assay [4], 7.81 µg/mL (≈ 3.63 µM); in assay [10], 7.81 µg/mL (≈ 3.63 µM); in assay [8] it was 3.91 µg/mL (≈ 1.82 µM); in assay [11], 1.95 µg/mL (≈ 0.906 µM). The MIC in assay [9] came to 15.63 µg/mL (≈ 7.26 µM); in assay [12], 7.81 µg/mL (≈ 3.63 µM). The “GM (Gr.− strains): geometric mean” value in [7] worked out at 13.67 µg/mL.

`CC[C@H](C)[C@H](NC(=O)[C@H](CCCNC(=N)N)NC(=O)[C@H](CCCCN)NC(=O)[C@H](C)NC(=O)[C@@H](NC(=O)[C@@H](N)CCCCN)[C@@H](C)CC)C(=O)N[C@@H](Cc1c[nH]c2ccccc12)C(=O)N[C@@H](CCCCN)C(=O)N[C@H](C(=O)N[C@@H](CC(C)C)C(=O)N[C@@H](CCCNC(=N)N)C(=O)N[C@@H](CCCNC(=N)N)C(=O)N[C@@H](CCCNC(=N)N)C(=O)N[C@@H](CC(C)C)C(=O)N[C@@H](Cc1ccccc1)C(=O)N[C@@H](CCCNC(=N)N)C(=O)N[C@@H](CCCNC(=N)N)C(N)=O)[C@@H](C)CC` [PA-17] (H-KIAKRIWKILRRRLFRR-NH2; N-terminus assumed): the “GM (Gr.+ strains): geometric mean” value in [1] turned out to be 12.11 µg/mL. Moreover, the MIC in assay [2] was determined as 62.5 µg/mL (≈ 27.1 µM); in assay [3], 15.63 µg/mL (≈ 6.77 µM); in assay [4], 15.63 µg/mL (≈ 6.77 µM); in assay [5] it was 1.95 µg/mL (≈ 0.845 µM); in assay [6] it was 3.91 µg/mL (≈ 1.69 µM); in assay [8] it was 7.81 µg/mL (≈ 3.38 µM). Also, the MIC stood at 3.91 µg/mL (≈ 1.69 µM) in assay [11] and 31.25 µg/mL (≈ 13.5 µM) in assay [9]. Further, in assay [7], the “GM (Gr.− strains): geometric mean” value stood at 15.63 µg/mL.

`CC[C@H](C)[C@H](NC(=O)[C@H](CCCNC(=N)N)NC(=O)[C@H](CCCCN)NC(=O)[C@H](C)NC(=O)[C@@H](NC(=O)[C@@H](N)CCCCN)[C@@H](C)CC)C(=O)N[C@@H](Cc1c[nH]c2ccccc12)C(=O)N[C@@H](CCCCN)C(=O)N[C@H](C(=O)N[C@@H](CC(C)C)C(=O)N[C@@H](CCCNC(=N)N)C(=O)N[C@@H](CCCNC(=N)N)C(=O)N[C@@H](CCCNC(=N)N)C(=O)N[C@@H](CC(C)C)C(=O)N[C@@H](Cc1ccccc1)C(=O)N[C@@H](CCCNC(=N)N)C(=O)N[C@@H](CCCNC(=N)N)C(=O)N[C@H](C(N)=O)C(C)C)[C@@H](C)CC` [PA-18] (H-KIAKRIWKILRRRLFRRV-NH2; N-terminus assumed): in assay [1], the “GM (Gr.+ strains): geometric mean” value was determined as 12.11 µg/mL. For the same compound, the MIC in [2] came to 250 µg/mL (≈ 104 µM); in assay [3], 31.25 µg/mL (≈ 13 µM); in assay [4] it was 15.63 µg/mL (≈ 6.49 µM); in assay [5], 1.95 µg/mL (≈ 0.81 µM); in assay [6], 3.91 µg/mL (≈ 1.62 µM); in assay [8] it was 7.81 µg/mL (≈ 3.24 µM). Besides, the MIC was 3.91 µg/mL (≈ 1.62 µM) in [11], 31.25 µg/mL (≈ 13 µM) in assay [9] and 15.63 µg/mL (≈ 6.49 µM) in [12]. The “GM (Gr.− strains): geometric mean” value in assay [7] came to 45.76 µg/mL.
